Experimental data as given in patent US11000033B2, “Ketone or oxime compound, and herbicide” (NISSAN CHEMICAL CORPORATION, priority 2014, dated 2021).

Tests used:
Assay type in all cases: in vivo
[1] = system: Abutilon theophrasti; test: Test Example 4: herbicidal effect by soil treatment (symbol M); details: application herbicide amount 320 g/ha
Method in brief: (§1)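 Seeds were sown in sterilized diluvial soil, covered with about 1.5 cm of soil, and the soil surface was sprayed with a water-diluted emulsion of the compound at a predetermined rate. Plants grew in a greenhouse at 25° C. to 30° C.; effects were scored visually 3 weeks after application.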

[2] = system: Apera spica-venti; test: Test Example 5: herbicidal effect by foliage application, plastic box (symbol L); details: 320 g/ha, 3 weeks after application
Method in brief: (§2)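 Post-emergence spray; diluvial soil (sterilized), ~1.5 cm seed cover; greenhouse 25–30° C; 14-day-old plants; water-diluted emulsion at predetermined dose; visual score at 3 wk post-treatment.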

[3] = system: Apera spica-venti; test: Test Example 4: herbicidal effect by soil treatment (symbol L); details: application herbicide amount 320 g/ha
Method in brief: as §1

[4] = system: Avena fatua; test: Test Example 4: herbicidal effect by soil treatment (symbol I); details: application herbicide amount 320 g/ha
Method in brief: as §1

[5] = system: Monochoria vaginalis; test: Test Example 2: herbicidal activity, application during weed generation in submerged conditions (symbol C); details: Table 23; application herbicide amount 320 g/ha; grade 0-5 by criteria of Test Example 1
Method in brief: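 Flooded-soil post-emergence test: emulsion of compound, water-diluted to target rate, applied to paddy water surface at 1–2 leaf stage of mixed-sown weeds (alluvial soil, 4 cm water, 25–30° C. greenhouse); visual rating 3 weeks after application.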

[6] = system: Echinochloa crus-galli var. crus-galli; test: Test Example 5: herbicidal effect by foliage application, plastic box (symbol H); details: 320 g/ha, 3 weeks after application
Method in brief: as §2

[7] = system: corn; test: Test Example 5: effect on crop by foliage application, plastic box (symbol c); details: 320 g/ha, 3 weeks after application
Method in brief: (§3)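 Diluvial soil, sterilized and boxed (21 × 13 × 7 cm), received spot-sown seed covered by about 1.5 cm soil; plants were then greenhouse-grown at 25–30° C.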

[8] = system: rice; test: Test Example 4: effect on crop by soil treatment (symbol b); details: application herbicide amount 320 g/ha
Method in brief: (§4)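 Soil-treatment setup: crop and weed seeds were spot-sown into sterilized diluvial soil, then buried beneath approximately 1.5 cm of it, and the boxes were housed in a 25–30° C. greenhouse.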

[9] = system: Echinochloa crus-galli var. crus-galli; test: Test Example 4: herbicidal effect by soil treatment (symbol H); details: application herbicide amount 320 g/ha
Method in brief: as §1

[10] = system: Setaria viridis; test: Test Example 5: herbicidal effect by foliage application, plastic box (symbol G); details: 320 g/ha, 3 weeks after application
Method in brief: as §2

[11] = system: Echinochloa oryzacola Vasing.; test: Test Example 1: herbicidal activity, application before weed generation in submerged conditions (symbol A); details: application herbicide amount 320 g/ha
Method in brief: (§5)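 Pre-emergence, paddy conditions: emulsifiable formulation diluted in water, dosed onto floodwater (4 cm depth) on sowing day. Alluvial soil; weeds sown mixed; rice transplanted at 2.5-leaf stage. Greenhouse 25–30 °C, 3 wk. Score 0–5 (5 = ≥90% kill, 0 = ≤5%).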

[12] = system: Avena fatua; test: Test Example 5: herbicidal effect by foliage application, plastic box (symbol I); details: 320 g/ha, 3 weeks after application
Method in brief: as §2

[13] = system: Monochoria vaginalis; test: Test Example 1: herbicidal activity, application before weed generation in submerged conditions (symbol C); details: application herbicide amount 320 g/ha
Method in brief: as §5

[14] = system: beet; test: Test Example 4: effect on crop by soil treatment (symbol f); details: application herbicide amount 320 g/ha
Method in brief: as §4

[15] = system: soybean; test: Test Example 4: effect on crop by soil treatment (symbol d); details: application herbicide amount 320 g/ha
Method in brief: as §4

[16] = system: rapeseed; test: Test Example 5: effect on crop by foliage application, plastic box (symbol g); details: 320 g/ha, 3 weeks after application
Method in brief: as §3

| SMILES | M: Abutilon theophrasti, herbicidal effect grade [1] | L: Apera spica-venti, herbicidal effect (criteria of Test Example 1) [2] | L: Apera spica-venti, herbicidal effect grade [3] | I: Avena fatua, herbicidal effect grade [4] | Herbicidal effect grade, C: Monochoria vaginalis [5] | H: Echinochloa crus-galli var. crus-galli, herbicidal effect (criteria of Test Example 1) [6] | c: corn, effect on crop (criteria of Test Example 1) [7] | b: directly sowed rice plant, effect on crop grade [8] | H: Echinochloa crus-galli var. crus-galli, herbicidal effect grade [9] | G: Setaria viridis, herbicidal effect (criteria of Test Example 1) [10] | Herbicidal effect grade, A: Echinochloa oryzacola Vasing. [11] | I: Avena fatua, herbicidal effect (criteria of Test Example 1) [12] | Herbicidal effect grade, C: Monochoria vaginalis [13] | f: beet, effect on crop grade [14] | d: soybean, effect on crop grade [15] | g: rapeseed, effect on crop (criteria of Test Example 1) [16] | other results |
| --- | --- | --- | --- | --- | --- | --- | --- | --- | --- | --- | --- | --- | --- | --- | --- | --- | --- |
| CON=C(C)CC1CC(OC(=O)SC(C)(C)C)=C(c2c(C)cc(-c3ccc(Cl)cc3)cc2C)C1=O (stereo not shown) [6-082] | 2 (Herbicidal ratio of 20% or higher and lower than 40%) | 5 (Herbicidal ratio of 90% or more (almost completely withered)) | 5 (Herbicidal ratio of 90% or more (almost completely withered)) | 3 (Herbicidal ratio of 40% or higher and lower than 70%) | 5 (Herbicidal ratio of 90% or more (almost completely withered)) | 5 (Herbicidal ratio of 90% or more (almost completely withered)) | 5 (Herbicidal ratio of 90% or more (almost completely withered)) | 1 (Herbicidal ratio of 5% or higher and lower than 20%) | 5 (Herbicidal ratio of 90% or more (almost completely withered)) | 5 (Herbicidal ratio of 90% or more (almost completely withered)) | 5 (Herbicidal ratio of 90% or more (almost completely withered)) | 5 (Herbicidal ratio of 90% or more (almost completely withered)) | 4 (Herbicidal ratio of 70% or higher and lower than 90%) | 0 (Herbicidal ratio of 5% or lower (almost no effect)) | 0 (Herbicidal ratio of 5% or lower (almost no effect)) | 4 (Herbicidal ratio of 70% or higher and lower than 90%) |  |
| C=CCON=C(C)CC1CC(O)=C(c2c(C)cc(C)cc2C)C1=O (stereo not shown) [1-018] |  |  |  |  | 3 (Herbicidal ratio of 40% or higher and lower than 70%) |  |  |  |  |  | 5 (Herbicidal ratio of 90% or more (almost completely withered)) |  | 2 (Herbicidal ratio of 20% or higher and lower than 40%) |  |  |  | M (Abutilon theophrasti) herbicidal effect grade [1]: 4 (Herbicidal ratio of 70% or higher and lower than 90%); L: Apera spica-venti, herbicidal effect grade [2]: 5 (Herbicidal ratio of 90% or more (almost completely withered)); L (Apera spica-venti) herbicidal effect grade [3]: 5 (Herbicidal ratio of 90% or more (almost completely withered)); I (Avena fatua) herbicidal effect grade [4]: 4 (Herbicidal ratio of 70% or higher and lower than 90%); H: Echinochloa crus-galli var. crus-galli, herbicidal effect grade [6]: 5 (Herbicidal ratio of 90% or more (almost completely withered)); c: corn, effect on crop grade [7]: 5 (Herbicidal ratio of 90% or more (almost completely withered)); b (directly sowed rice plant) effect on crop grade [8]: 5 (Herbicidal ratio of 90% or more (almost completely withered)); H (Echinochloa crus-galli var. crus-galli) herbicidal effect grade [9]: 5 (Herbicidal ratio of 90% or more (almost completely withered)); G: Setaria viridis, herbicidal effect grade [10]: 5 (Herbicidal ratio of 90% or more (almost completely withered)); I: Avena fatua, herbicidal effect grade [12]: 5 (Herbicidal ratio of 90% or more (almost completely withered)); f (beet) effect on crop grade [14]: 0 (Herbicidal ratio of 5% or lower (almost no effect)); d (soybean) effect on crop grade [15]: 0 (Herbicidal ratio of 5% or lower (almost no effect)); g: rapeseed, effect on crop grade [16]: 4 (Herbicidal ratio of 70% or higher and lower than 90%) |
| CON=C(C)CC1CC(OC(=O)N2CCOCC2)=C(c2c(C)cc(-c3ccc(Cl)cc3)cc2OC)C1=O (stereo not shown) [6-078, 2-(4′-chloro-3-methoxy-5-methyl-[1,1′-biphenyl]-4-yl)-4-{2-(methoxyimino)propyl}-3-oxocyclopent-1-ene-1-yl morpholine-4-carboxylate] | 1 (Herbicidal ratio of 5% or higher and lower than 20%) | 5 (Herbicidal ratio of 90% or more (almost completely withered)) | 3 (Herbicidal ratio of 40% or higher and lower than 70%) | 3 (Herbicidal ratio of 40% or higher and lower than 70%) | 3 (Herbicidal ratio of 40% or higher and lower than 70%) | 5 (Herbicidal ratio of 90% or more (almost completely withered)) | 5 (Herbicidal ratio of 90% or more (almost completely withered)) | 1 (Herbicidal ratio of 5% or higher and lower than 20%) | 0 (Herbicidal ratio of 5% or lower (almost no effect)) | 5 (Herbicidal ratio of 90% or more (almost completely withered)) | 5 (Herbicidal ratio of 90% or more (almost completely withered)) | 5 (Herbicidal ratio of 90% or more (almost completely withered)) | 4 (Herbicidal ratio of 70% or higher and lower than 90%) | 0 (Herbicidal ratio of 5% or lower (almost no effect)) | 1 (Herbicidal ratio of 5% or higher and lower than 20%) | 4 (Herbicidal ratio of 70% or higher and lower than 90%) |  |
| CON=C(C)CC1CC(O)=C(c2c(OC)cc(C)cc2OC)C1=O (stereo not shown) [6-103] |  | 5 (Herbicidal ratio of 90% or more (almost completely withered)) |  |  | 0 (Herbicidal ratio of 5% or lower (almost no effect)) | 5 (Herbicidal ratio of 90% or more (almost completely withered)) | 5 (Herbicidal ratio of 90% or more (almost completely withered)) |  |  | 5 (Herbicidal ratio of 90% or more (almost completely withered)) | 5 (Herbicidal ratio of 90% or more (almost completely withered)) | 5 (Herbicidal ratio of 90% or more (almost completely withered)) | 0 (Herbicidal ratio of 5% or lower (almost no effect)) |  |  | 4 (Herbicidal ratio of 70% or higher and lower than 90%) | Herbicidal effect grade, M: Abutilon theophrasti [1]: 0 (Herbicidal ratio of 5% or lower (almost no effect)); Herbicidal effect grade, L: Apera spica-venti [3]: 5 (Herbicidal ratio of 90% or more (almost completely withered)); Herbicidal effect grade, I: Avena fatua [4]: 5 (Herbicidal ratio of 90% or more (almost completely withered)); Effect on crop grade, b: directly sowed rice plant [8]: 5 (Herbicidal ratio of 90% or more (almost completely withered)); Herbicidal effect grade, H: Echinochloa crus-galli var. crus-galli [9]: 5 (Herbicidal ratio of 90% or more (almost completely withered)); Effect on crop grade, f: beet [14]: 0 (Herbicidal ratio of 5% or lower (almost no effect)); Effect on crop grade, d: soybean [15]: 0 (Herbicidal ratio of 5% or lower (almost no effect)) |
